In PubChem BioAssay AID1259407 (Chemical Carcinogenesis Research Information System (CCRIS), 2018) one finds mutagenic call data, which are given here for seven compounds.

Active and inactive are the calls of the source. The rule behind the calls is not given here.

The subject of this data set is CCRIS mutagenicity, Ames/micronucleus/aberration tests. Nature of the data set: CCRIS mutagenicity studies.
The mark [1] stands for this setting: Test System: AMES SALMONELLA TYPHIMURIUM, Strain/Indicator: TA1535, Metabolic Activation: NONE, Method: PREINCUBATION
Setting [2] is: Test System: AMES SALMONELLA TYPHIMURIUM, Strain/Indicator: TA1537, Metabolic Activation: NONE, Method: PREINCUBATION
Where [3] appears, read: Test System: AMES SALMONELLA TYPHIMURIUM, Strain/Indicator: TA98, Metabolic Activation: NONE, Method: STANDARD PLATE.
The mark [4] stands for this setting: Test System: AMES SALMONELLA TYPHIMURIUM, Strain/Indicator: TA100, Metabolic Activation: NONE, Method: STANDARD PLATE.
The mark [5] stands for this setting: Test System: AMES SALMONELLA TYPHIMURIUM, Strain/Indicator: TA100, Metabolic Activation: NONE, Method: PREINCUBATION

Take `Nc1ccc2nc3ccccc3c(N)c2c1`: the mutagenic call under setting [1] is “inactive; negative”; the mutagenic call (Test System: AMES SALMONELLA TYPHIMURIUM, Strain/Indicator: TA1535, Metabolic Activation: RAT, LIVER, S-9, TETRACHLOROBIPHENYL, Method: PREINCUBATION) is “inactive; negative”; the mutagenic call under setting [2] was “active; positive”; the mutagenic call (Test System: AMES SALMONELLA TYPHIMURIUM, Strain/Indicator: TA1537, Metabolic Activation: RAT, LIVER, S-9, TETRACHLOROBIPHENYL, Method: PREINCUBATION) is “active; positive”; the mutagenic call (Test System: AMES SALMONELLA TYPHIMURIUM, Strain/Indicator: TA1538, Metabolic Activation: NONE, Method: PREINCUBATION) was “inactive; negative”; the mutagenic call (Test System: AMES SALMONELLA TYPHIMURIUM, Strain/Indicator: TA1538, Metabolic Activation: RAT, LIVER, S-9, TETRACHLOROBIPHENYL, Method: PREINCUBATION) was “active; positive”. Also, the mutagenic call reads like this: (Test System: AMES SALMONELLA TYPHIMURIUM, Strain/Indicator: TA1977, Metabolic Activation: NONE, Method: PREINCUBATION) “active; positive”; (Test System: AMES SALMONELLA TYPHIMURIUM, Strain/Indicator: TA1977, Metabolic Activation: RAT, LIVER, S-9, TETRACHLOROBIPHENYL, Method: PREINCUBATION) “active; positive”; (Test System: AMES SALMONELLA TYPHIMURIUM, Strain/Indicator: TA1978, Metabolic Activation: RAT, LIVER, S-9, TETRACHLOROBIPHENYL, Method: PREINCUBATION) “inactive; negative”.

`c1ccc2sc(SN3CCOCC3)nc2c1`: the mutagenic call reads like this: under setting [3], “inactive; negative”; (Test System: AMES SALMONELLA TYPHIMURIUM, Strain/Indicator: TA98, Metabolic Activation: S-9, Method: STANDARD PLATE) “inactive; negative”; under setting [4], “inactive; negative”; (Test System: AMES SALMONELLA TYPHIMURIUM, Strain/Indicator: TA100, Metabolic Activation: S-9, Method: STANDARD PLATE) “inactive; negative”.

For `Cc1cccc(NO)c1`, the mutagenic call was “inactive; negative” (Test System: AMES SALMONELLA TYPHIMURIUM, Strain/Indicator: TA98, Metabolic Activation: RAT, LIVER, S-9, AROCLOR 1254, Method: PREINCUBATION) and “active; positive” (Test System: AMES SALMONELLA TYPHIMURIUM, Strain/Indicator: TA100, Metabolic Activation: RAT, LIVER, S-9, PCB, Method: PREINCUBATION).

In the case of `Nc1ccc2c(c1)C(=O)c1ccc(N)cc1C2=O`, the mutagenic call was “inactive; negative” under setting [3]; “active; positive” (Test System: AMES SALMONELLA TYPHIMURIUM, Strain/Indicator: TA98, Metabolic Activation: RAT, LIVER, S-9, AROCLOR 1254, Method: STANDARD PLATE); “inactive; negative” under setting [4]; “inactive; negative” (Test System: AMES SALMONELLA TYPHIMURIUM, Strain/Indicator: TA100, Metabolic Activation: RAT, LIVER, S-9, AROCLOR 1254, Method: STANDARD PLATE); “inactive; negative” (Test System: AMES SALMONELLA TYPHIMURIUM, Strain/Indicator: TA1535, Metabolic Activation: NONE, Method: STANDARD PLATE); “inactive; negative” (Test System: AMES SALMONELLA TYPHIMURIUM, Strain/Indicator: TA1535, Metabolic Activation: RAT, LIVER, S-9, AROCLOR 1254, Method: STANDARD PLATE). Moreover, the mutagenic call is “inactive; negative” (Test System: AMES SALMONELLA TYPHIMURIUM, Strain/Indicator: TA1537, Metabolic Activation: NONE, Method: STANDARD PLATE); “active; positive” (Test System: AMES SALMONELLA TYPHIMURIUM, Strain/Indicator: TA1537, Metabolic Activation: RAT, LIVER, S-9, AROCLOR 1254, Method: STANDARD PLATE); “inactive; negative” (Test System: AMES SALMONELLA TYPHIMURIUM, Strain/Indicator: TA1538, Metabolic Activation: NONE, Method: STANDARD PLATE); “inactive; negative” (Test System: AMES SALMONELLA TYPHIMURIUM, Strain/Indicator: TA1978, Metabolic Activation: RAT, LIVER, S-9, AROCLOR 1254, Method: STANDARD PLATE).

Regarding `OCCO`, the mutagenic call is “inactive; negative” (Test System: AMES SALMONELLA TYPHIMURIUM, Strain/Indicator: TA98, Metabolic Activation: HAMSTER, LIVER, S-9, AROCLOR 1254 (10%), Method: PREINCUBATION); “inactive; negative” (Test System: AMES SALMONELLA TYPHIMURIUM, Strain/Indicator: TA98, Metabolic Activation: NONE, Method: PREINCUBATION); “inactive; negative” (Test System: AMES SALMONELLA TYPHIMURIUM, Strain/Indicator: TA98, Metabolic Activation: RAT LIVER S-9, PHENOBARBITAL AND BETA-NAPHTHOFLAVONE, Method: PREINCUBATION); “inactive; negative” (Test System: AMES SALMONELLA TYPHIMURIUM, Strain/Indicator: TA98, Metabolic Activation: RAT, LIVER, S-9, AROCLOR 1254 (10%), Method: PREINCUBATION); “inactive; negative” (Test System: AMES SALMONELLA TYPHIMURIUM, Strain/Indicator: TA100, Metabolic Activation: HAMSTER, LIVER, S-9, AROCLOR 1254 (10%), Method: PREINCUBATION); “inactive; negative” under setting [5]. The mutagenic call runs as follows: (Test System: AMES SALMONELLA TYPHIMURIUM, Strain/Indicator: TA100, Metabolic Activation: RAT LIVER S-9, PHENOBARBITAL AND BETA-NAPHTHOFLAVONE, Method: PREINCUBATION) “inactive; negative”; (Test System: AMES SALMONELLA TYPHIMURIUM, Strain/Indicator: TA100, Metabolic Activation: RAT, LIVER, S-9, AROCLOR 1254 (10%), Method: PREINCUBATION) “inactive; negative”; (Test System: AMES SALMONELLA TYPHIMURIUM, Strain/Indicator: TA1535, Metabolic Activation: HAMSTER, LIVER, S-9, AROCLOR 1254 (10%), Method: PREINCUBATION) “inactive; negative”; under setting [1], “inactive; negative”; (Test System: AMES SALMONELLA TYPHIMURIUM, Strain/Indicator: TA1535, Metabolic Activation: RAT LIVER S-9, PHENOBARBITAL AND BETA-NAPHTHOFLAVONE, Method: PREINCUBATION) “inactive; negative”; (Test System: AMES SALMONELLA TYPHIMURIUM, Strain/Indicator: TA1535, Metabolic Activation: RAT, LIVER, S-9, AROCLOR 1254 (10%), Method: PREINCUBATION) “inactive; negative”. Besides, the mutagenic call was “inactive; negative” (Test System: AMES SALMONELLA TYPHIMURIUM, Strain/Indicator: TA1537, Metabolic Activation: HAMSTER, LIVER, S-9, AROCLOR 1254 (10%), Method: PREINCUBATION); “inactive; negative” under setting [2]; “inactive; negative” (Test System: AMES SALMONELLA TYPHIMURIUM, Strain/Indicator: TA1537, Metabolic Activation: RAT LIVER S-9, PHENOBARBITAL AND BETA-NAPHTHOFLAVONE, Method: PREINCUBATION); “inactive; negative” (Test System: AMES SALMONELLA TYPHIMURIUM, Strain/Indicator: TA1537, Metabolic Activation: RAT, LIVER, S-9, AROCLOR 1254 (10%), Method: PREINCUBATION); “inactive; negative” (Test System: E.COLI, Strain/Indicator: WP2UVRA, Metabolic Activation: NONE, Method: PREINCUBATION); “inactive; negative” (Test System: E.COLI, Strain/Indicator: WP2UVRA, Metabolic Activation: RAT LIVER S-9, PHENOBARBITAL AND BETA-NAPHTHOFLAVONE, Method: PREINCUBATION). Moreover, the mutagenic call (Test System: MOUSE LYMPHOMA, Strain/Indicator: L5178Y (TK+/TK-), Metabolic Activation: NONE, Method: SUSPENSION/PLATE) is “inactive; negative” and the mutagenic call (Test System: MOUSE LYMPHOMA, Strain/Indicator: L5178Y (TK+/TK-), Metabolic Activation: RAT, LIVER, S-9, AROCLOR 1254, Method: SUSPENSION/PLATE) was “inactive; negative”.

On to `Nc1ccc(O)c2c1C(O)=CC(=O)C2=O`, for which the mutagenic call (Test System: Ames Salmonella typhimurium, Strain/Indicator: TA97, Metabolic Activation: None, Method: Preincubation) was “inactive; negative”; the mutagenic call (Test System: Ames Salmonella typhimurium, Strain/Indicator: TA97, Metabolic Activation: Rat, Liver, S9, Aroclor 1254, Method: Preincubation) was “inactive; negative”; the mutagenic call (Test System: Ames Salmonella typhimurium, Strain/Indicator: TA98, Metabolic Activation: None, Method: Preincubation) is “active; positive”; the mutagenic call (Test System: Ames Salmonella typhimurium, Strain/Indicator: TA98, Metabolic Activation: Rat, Liver, S9, Aroclor 1254, Method: Preincubation) is “inactive; negative”; the mutagenic call (Test System: Ames Salmonella typhimurium, Strain/Indicator: TA100, Metabolic Activation: None, Method: Preincubation) is “inactive; negative”; the mutagenic call (Test System: Ames Salmonella typhimurium, Strain/Indicator: TA100, Metabolic Activation: Rat, Liver, S9, Aroclor 1254, Method: Preincubation) was “inactive; negative”. In addition, the mutagenic call by setting is: (Test System: Ames Salmonella typhimurium, Strain/Indicator: TA102, Metabolic Activation: None, Method: Preincubation) “inactive; negative”; (Test System: Ames Salmonella typhimurium, Strain/Indicator: TA102, Metabolic Activation: Rat, Liver, S9, Aroclor 1254, Method: Preincubation) “active; positive”.

For `Cl[C@@H]1O[C@@H]1CBr`, the mutagenic call under setting [5] was “active; positive”.
